From patent US20220289708A1, “SUBSTITUTED N-PHENYL URACILS, SALTS THEREOF AND THEIR USE AS HERBICIDAL AGENTS” (Bayer Aktiengesellschaft, priority 2019, published 2022)

Columns and labels:
Format in all cases: in vivo
[1] = test system: Veronica persica; assay: Post-emergence herbicidal action
Description: (§1) a. Post-Emergence Herbicidal Action and Crop Plant Compatibility Seeds of monocotyledonous and dicotyledonous weeds and crop plants were placed in sandy loam in plastic or wood-fiber pots, covered with soil and cultivated in a greenhouse under controlled growth conditions. 2 to 3 weeks after sowing, the test plants were treated at the one-leaf stage. The compounds of the invention, formulated in the form of wettable powders (WP) or as emulsion concentrates (EC), were then sprayed onto the green parts of the plants as aqueous suspension or emulsion with addition of 0.5% additive at a water application rate of 600 l/ha (converted). After the test plants had been kept in the greenhouse under optimum growth conditions for about 3 weeks, the activity of the preparations was rated visually in comparison to untreated controls. For example, 100% activity=the plants have died, 0% activity=like control plants. Tables A1 to A15 below show the effects of selected compounds of the general formula (I) according to Tables I.1 to I.36 on various harmful plants and at an application rate corresponding to 20 g/ha and less, which were obtained by the experimental procedure mentioned above.

[2] = test system: Alopecurus myosuroides; assay: Post-emergence herbicidal action; details: rated visually after about 3 weeks vs untreated controls
Description: as §1

[3] = test system: Abutilon theophrasti; assay: Post-emergence herbicidal action; details: rated visually after about 3 weeks vs untreated controls
Description: as §1

[4] = test system: Hordeum murinum; assay: Post-emergence herbicidal action
Description: as §1

[5] = test system: Digitaria sanguinalis; assay: Post-emergence herbicidal action; details: rated visually after about 3 weeks vs untreated controls
Description: as §1

[6] = test system: Echinochloa crus-galli; assay: Post-emergence herbicidal action; details: rated visually after about 3 weeks vs untreated controls
Description: as §1

[7] = test system: Matricaria inodora; assay: Post-emergence herbicidal action; details: rated visually after about 3 weeks vs untreated controls
Description: as §1

[8] = test system: Setaria viridis; assay: Post-emergence herbicidal action; details: rated visually after about 3 weeks vs untreated controls
Description: as §1

[9] = test system: Viola tricolor; assay: Post-emergence herbicidal action
Description: as §1

[10] = test system: Pharbitis purpurea; assay: Post-emergence herbicidal action; details: rated visually after about 3 weeks vs untreated controls
Description: as §1

[11] = test system: Stellaria media; assay: Post-emergence herbicidal action; details: application rate 5 g/ha, rated visually after about 3 weeks vs untreated controls
Description: as §1

[12] = test system: Lolium rigidum; assay: Post-emergence herbicidal action; details: rated visually after about 3 weeks vs untreated controls
Description: as §1

[13] = test system: Amaranthus retroflexus; assay: Post-emergence herbicidal action; details: rated visually after about 3 weeks vs untreated controls
Description: as §1

[14] = test system: Polygonum convolvulus; assay: Post-emergence herbicidal action
Description: as §1

[15] = test system: Avena fatua; assay: Post-emergence herbicidal action; details: rated visually after about 3 weeks vs untreated controls
Description: as §1

[16] = test system: Oryza sativa; assay: Post-emergence crop plant compatibility
Description: a. Post-Emergence Herbicidal Action and Crop Plant Compatibility
as §1, with “Seeds” for “a. Post-Emergence Herbicidal Action and Crop Plant Compatibility Seeds”, “plants.” for “plants. Tables A1 to A15 below show the effects of selected compounds of the general formula (I) according to Tables I.1 to I.36 on various harmful plants and at an application rate corresponding to 20 g/ha and less, which were obtained by the experimental procedure mentioned above.”
Tables A16 to A19 below show the crop plant compatibilities of selected compounds of the general formula (I) according to Tables I.1 to I.36 at an application rate corresponding to 5 g/ha or 20 g/ha, which were obtained in experiments according to the experimental procedure mentioned above. Here, the observed effects on selected crop plants are stated in comparison to the untreated controls (values in %).

Structure (SMILES)	Veronica persica (efficacy in %) ([1]; application rate 5 g/ha)	Abutilon theophrasti (efficacy in %) ([3]; application rate 5 g/ha)	Digitaria sanguinalis (efficacy in %) ([5]; application rate 5 g/ha)	Echinochloa crus-galli (efficacy in %) ([6]; application rate 5 g/ha)	Matricaria inodora (efficacy in %) ([7]; application rate 5 g/ha)	Setaria viridis (efficacy in %) ([8]; application rate 5 g/ha)	Viola tricolor (efficacy in %) ([9]; application rate 5 g/ha)	Pharbitis purpurea (efficacy in %) ([10]; application rate 5 g/ha)	Stellaria media (efficacy in %) [11]	Lolium rigidum (efficacy in %) ([12]; application rate 20 g/ha)	Amaranthus retroflexus (efficacy in %) ([13]; application rate 5 g/ha)	Polygonum convolvulus (efficacy in %) ([14]; application rate 5 g/ha)	Alopecurus myosuroides (efficacy in %) ([2]; application rate 20 g/ha)	Abutilon theophrasti (efficacy in %) ([3]; application rate 20 g/ha)	Digitaria sanguinalis (efficacy in %) ([5]; application rate 20 g/ha)	Echinochloa crus-galli (efficacy in %) ([6]; application rate 20 g/ha)	Amaranthus retroflexus (efficacy in %) ([13]; application rate 20 g/ha)	Avena fatua (efficacy in %) ([15]; application rate 20 g/ha)	Veronica persica (efficacy in %) ([1]; application rate 20 g/ha)	Matricaria inodora (efficacy in %) ([7]; application rate 20 g/ha)	other results
Cn1c(C(F)(F)F)cc(=O)n(-c2cc(Oc3cccnc3OCC(=O)OCC3CCOC3)c(Cl)cc2F)c1=O (stereo not shown) [I.15-72, Tetrahydrofuran-3-ylmethyl [(3-{2-chloro-4-fluoro-5-[3-methyl-2,6-dioxo-4-(trifluoromethyl)-3,6-dihydropyrimidin-1(2H)-yl]phenoxy}pyridin-2-yl)oxy]acetate]	100%	100%	100%	100%	90%	100%	100%	100%	100%	100%	100%	100%									Alopecurus myosuroides (efficacy in %) ([2]; application rate 5 g/ha): 90%; Hordeum murinum (efficacy in %) ([4]; application rate 5 g/ha): 90%; Avena fatua (efficacy in %) ([15]; application rate 5 g/ha): 80%
COCCOC(=O)COc1ncccc1Sc1cc(-n2c(=O)cc(C(F)(F)F)n(C)c2=O)c(F)cc1Cl [I.1-1, 2-Methoxyethyl {[3-({2-chloro-4-fluoro-5-[3-methyl-2,6-dioxo-4-(trifluoromethyl)-3,6-dihydropyrimidin-1(2H)-yl]phenyl}sulfanyl)pyridin-2-yl]oxy}acetate]	100%				100%	100%	100%	100%	90%	80%		100%	80%	100%	100%	100%	100%	80%			Hordeum murinum (efficacy in %) ([4]; application rate 5 g/ha): 80%
Cn1c(C(F)(F)F)cc(=O)n(-c2cc(Oc3cc(F)cnc3OCC(=O)OCC#N)c(Cl)cc2F)c1=O [I.36-176]										80%			100%	100%	100%	100%	100%	80%	90%	90%	Setaria viridis (efficacy in %) ([8]; application rate 20 g/ha): 100%; Viola tricolor (efficacy in %) ([9]; application rate 20 g/ha): 100%; Pharbitis purpurea (efficacy in %) ([10]; application rate 20 g/ha): 100%; Polygonum convolvulus (efficacy in %) ([14]; application rate 20 g/ha): 100%; Oryza sativa (efficacy in %) ([16]; application rate 5 g/ha): 20%
COCCOCCOC(=O)COc1ncccc1Oc1cc(-n2c(=O)cc(C(F)(F)F)n(C)c2=O)c(F)cc1Cl [I.15-23]	100%	100%	100%	100%	90%	100%	100%	100%	100%		100%	100%	100%								Hordeum murinum (efficacy in %) ([4]; application rate 5 g/ha): 80%; Lolium rigidum (efficacy in %) ([12]; application rate 5 g/ha): 80%; Avena fatua (efficacy in %) ([15]; application rate 5 g/ha): 80%
COCCCOC(=O)CSc1ncccc1Sc1cc(-n2c(=O)cc(C(F)(F)F)n(C)c2=O)c(F)cc1Cl [I.10-26]	80%	100%				100%	100%	100%	100%	80%	100%	100%			100%	100%				100%	Alopecurus myosuroides (efficacy in %) ([2]; application rate 5 g/ha): 80%
CCOC(COC(=O)COc1ncccc1Oc1cc(-n2c(=O)cc(C(F)(F)F)n(C)c2=O)c(F)cc1Br)OCC [I.16-422]										90%			100%	100%	100%	100%	100%	100%	100%	100%	Setaria viridis (efficacy in %) ([8]; application rate 20 g/ha): 100%; Viola tricolor (efficacy in %) ([9]; application rate 20 g/ha): 100%; Pharbitis purpurea (efficacy in %) ([10]; application rate 20 g/ha): 100%; Polygonum convolvulus (efficacy in %) ([14]; application rate 20 g/ha): 100%; Oryza sativa (efficacy in %) ([16]; application rate 5 g/ha): 20%
CCS(=O)(=O)NCCOC(=O)COc1ncccc1Oc1cc(-n2c(=O)cc(C(F)(F)F)n(C)c2=O)c(F)cc1Br [I.16-421]										90%			100%	100%	100%	100%	100%	100%	100%	100%	Setaria viridis (efficacy in %) ([8]; application rate 20 g/ha): 100%; Viola tricolor (efficacy in %) ([9]; application rate 20 g/ha): 100%; Pharbitis purpurea (efficacy in %) ([10]; application rate 20 g/ha): 100%; Polygonum convolvulus (efficacy in %) ([14]; application rate 20 g/ha): 100%; Oryza sativa (efficacy in %) ([16]; application rate 5 g/ha): 20%
COCCCOC(=O)COc1ncccc1Oc1cc(-n2c(=O)cc(C(F)(F)F)n(C)c2=O)c(F)cc1Cl [I.15-26, 3-Methoxypropyl [(3-{2-chloro-4-fluoro-5-[3-methyl-2,6-dioxo-4-(trifluoromethyl)-3,6-dihydropyrimidin-1(2H)-yl]phenoxy}pyridin-2-yl)oxy]acetate]	100%	100%	100%	100%		100%	100%	100%	100%		100%	100%	90%					90%			Hordeum murinum (efficacy in %) ([4]; application rate 20 g/ha): 100%; Lolium rigidum (efficacy in %) ([12]; application rate 5 g/ha): 80%
CCOC(COC(=O)COc1ncccc1Oc1cc(-n2c(=O)cc(C(F)(F)F)n(C)c2=O)c(F)cc1[N+](=O)[O-])OCC [I.14-422]										80%			100%	100%	100%	100%	100%	90%	100%	90%	Setaria viridis (efficacy in %) ([8]; application rate 20 g/ha): 100%; Viola tricolor (efficacy in %) ([9]; application rate 20 g/ha): 100%; Pharbitis purpurea (efficacy in %) ([10]; application rate 20 g/ha): 100%; Polygonum convolvulus (efficacy in %) ([14]; application rate 20 g/ha): 100%; Oryza sativa (efficacy in %) ([16]; application rate 20 g/ha): 20%
COCCOC(=O)CSc1ncccc1Sc1cc(-n2c(=O)cc(C(F)(F)F)n(C)c2=O)c(F)cc1Cl [I.10-1]		80%	80%	100%	90%	80%	100%	80%	100%		80%	100%						80%	90%		Alopecurus myosuroides (efficacy in %) ([2]; application rate 5 g/ha): 80%; Hordeum murinum (efficacy in %) ([4]; application rate 20 g/ha): 90%
